{"source": "patent US5830504A", "about": "“Cooperative combinations of ligands contained within a matrix” (La Jolla Cancer Research Foundation, priority 1995, dated 1998)", "type_in_all_cases": "cell-based", "key": {"NRK cells": {"system": "NRK cells", "assay": "DNA synthesis in IGF-1-stimulated NRK cells on vitronectin, collagen or laminin", "settings": "data not shown"}, "[1]": {"system": "human foreskin fibroblasts", "assay": "DNA synthesis ([3H]-thymidine incorporation) in PDGF-stimulated human foreskin fibroblasts on vitronectin or collagen", "settings": "40 ng/ml PDGF-BB, 20 μg/ml coating, FIG. 5 column 3 vs 4", "experimental": "(§1) Human foreskin fibroblasts (Coriell) were plated at 1×10^5 cells/well on 24-well plates that had been coated for 12 hours either with 20 μg/ml of vitronectin of 20 μg/ml of type I collagen. Cells were incubated for 36 hours in Dulbecco's modified Eagle's medium containing 0.1% bovine serum albumin followed by addition of buffer or 40 ng/ml PDGF-BB (Boehringer Mannheim). After 15 hours, the cells were pulse-labeled with 1 μCi/ml [^3 H]-thymidine (specific activity 6.7 Ci/mmol, DuPont NEN) for 3 hours and thymidine incorporation into DNA was determined by liquid scintillation counting.\nCells were serum-starved and treated with buffer only (samples 1 and 2) or with PDGF (samples 3 and 4). Data points are the average of duplicate samples."}, "Rat-1 cells": {"system": "Rat-1 cells", "assay": "DNA synthesis ([3H]-thymidine incorporation) in EGF-stimulated Rat-1 cells on vitronectin or collagen", "settings": "40 ng/ml EGF, 20 μg/ml coating, FIG. 6", "experimental": "as §1, with “Rat-1 cells were” for “Human foreskin fibroblasts (Coriell) were”, “vitronectin or” for “vitronectin of”, “ng/ml EGF” for “ng/ml PDGF-BB”\nAfter being serum-starved, the cells were treated with buffer only (samples 1 and 2) or with EGF (samples 3 and 4). Data points are the average of triplicate samples."}, "[2]": {"system": "αv β3 integrin-IRS-1 association in HIRcB cells", "assay": "Association of IRS-1 with the vitronectin receptor after insulin stimulation (immunoprecipitation, immunoblot, densitometry)", "settings": "insulin-stimulated HIRcB cells; 100 nM insulin; compared with IRS-1 from total cell lysate", "experimental": "HIRcB cells were grown to 80% confluency in Dulbeccos's modified Eagle's medium (DMEM) containing 10% fetal calf serum (FCS) and 500 nM methotrexate, incubated in DMEM+0.1% BSA for 36 hours, and either left quiescent, or stimulated with 100 nM insulin (Sigma) for 3 minutes. Cell monolayers were rinsed with PBS, frozen with liquid nitrogen and lysed in NP-40 lysis buffer (20 mM Tris-HCl (pH 8.0), 1% NP-40, 10% glycerol, 137 mM NaCl, 1 mM CaCl2, 1 mM MgCl2, 1 mM sodium orthovanadate, 50 mM sodium fluoride, 1 mM phenylmethylsulfonylfluoride, 0.1 U/ml aprotinin, 10 μg/ml pepstatin A). HIRcB cells were immunoprecipitated with anti-αv β3 237 according to Suzuki et al., PNAS USA 83:8614 (1986), as shown in lanes 1 and 3, 237 preimmune serum in lane 2, anti-αv β3 1343 in lane 4, anti-αIIb β3 in lane 5, anti-α5 β1 488 in lane 6 (made according to Argraves et al., J. Cell Biol. 105:1183 (1987)) and an unrelated rabbit antiserum (lane 7). Anti-αv β3 1343 was obtained from a person (Telios Pharmaceuticals, Inc.) and anti-αIIb β3 from Dr. Elisabetta Dejana (Mario Negri Institute, Milan, Italy). Three anti-α5 β1 antibodies and six unrelated polyclonal antibodies tested gave results similar to those shown in lanes 6 and 7. […] In lane 8, anti-αv β3 237 immunocomplexes from insulin-treated cells were dissociated and reprecipitated with the same antibody as follows. […]"}, "[3]": {"system": "FG-B human pancreatic carcinoma cells (αv β3 integrin positive)", "assay": "DNA synthesis ([3H]-thymidine incorporation into DNA) in insulin-stimulated FG-B cells on vitronectin or type I collagen", "settings": "100 mM insulin, plates coated with 10 μg/ml vitronectin or type I collagen, FIG. 4 columns 9, 10", "experimental": "(§2) FG-B (columns 1, 2, 5, 6, 9, and 10) and FG-C cells (columns 3, 4, 7, 8, 11, and 12) were plated at 1×10^5 cells/well on 24-well plates that had been coated either with vitronectin (dark column) or type I collagen (open column) . Plates were coated with 10 μg/ml of either vitronectin or type I collagen for 12 hours followed by blocking with 0.5% bovine serum albumin For 2 hours. Cells were incubated for 36 hours in DMEM containing 10% FCS (columns 1 to 4), or in DMEM containing 0.1% BSA followed by addition of buffer (columns 5 to 8) or 100 mM insulin (columns 9 to 12). FCS is used as a control because it provides maximal stimulation owing to the presence of high levels of growth factors and adhesion proteins.\n(§3) After 15 hours, the cells were pulse-labeled with 1 μCi/ml [^3 H]-thymidine (specific activity 6.7 Ci/mmol, DuPont NEN) for 3 hours and thymidine incorporation into DNA was determined by trichloroacetic acid precipitation and liquid scintillation counting. Error bars indicate the standard error of triplicate determinations."}, "[4]": {"system": "FG-C human pancreatic carcinoma cells (αv β3 integrin negative)", "assay": "DNA synthesis ([3H]-thymidine incorporation into DNA) in insulin-stimulated FG-C cells on vitronectin or type I collagen", "settings": "FG-C cells lacking αv β3; 100 mM insulin; FIG. 4 columns 3, 4, 7, 8, 11, 12", "experimental": "as §2, §3"}}, "data": [{"substance": "insulin-like growth factor [IGF-1]", "values": [{"measurement": "DNA synthesis in response to IGF-1, on vitronectin relative to collagen or laminin", "setting": "NRK cells", "value": "about 2.3 fold"}]}, {"substance": "platelet derived growth factor [PDGF]", "values": [{"measurement": "DNA synthesis in response to PDGF, on vitronectin relative to collagen", "setting": "[1]", "value": "about 2.3 fold"}]}, {"substance": "Epidermal growth factor (NSDSECPLSHDGYCLHDGVCMYIEALDKYACNCVVGYIGERCQYRDLKWWELR; Epidermal growth factor; UniProt P01133 971-1023, looked up) [EGF, EGF from Boehringer Mannheim]", "values": [{"measurement": "Response (DNA synthesis) to EGF on vitronectin versus collagen", "setting": "Rat-1 cells", "value": "same response"}]}, {"substance": "insulin", "values": [{"measurement": "Share of IRS-1 complexed with the vitronectin receptor", "setting": "[2]", "value": "Five to eight"}, {"measurement": "DNA synthesis in response to insulin, on vitronectin relative to collagen", "setting": "[3]", "value": "about 2.5 fold"}, {"measurement": "Difference in DNA synthesis response on vitronectin and collagen", "setting": "[4]", "value": "no difference"}]}]}
